Measurements from patent US7179612B2, “Method for detecting a lipoprotein-acute phase protein complex and predicting an increased risk of system failure or mortality” (bioMerieux, Inc., priority 2000, dated 2007).

Key:
VLDL/CRP complex [1] = target: T1, VLDL/CRP complex (Homo sapiens, UniProt P02741); assay: Inhibition of VLDL/CRP complex formation (Ca2+-dependent turbidity change); format: biochemical
T1 sequence (P02741 19-224): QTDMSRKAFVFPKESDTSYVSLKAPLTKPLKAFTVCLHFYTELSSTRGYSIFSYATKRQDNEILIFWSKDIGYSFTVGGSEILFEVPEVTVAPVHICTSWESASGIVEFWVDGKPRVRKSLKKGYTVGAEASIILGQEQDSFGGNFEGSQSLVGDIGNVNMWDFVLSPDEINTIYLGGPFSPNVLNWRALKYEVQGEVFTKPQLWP
Description: It is known that CRP binds directly to PC and that PC competes with lipoproteins for binding to CRP.

VLDL/CRP complex [2] = target: T1, VLDL/CRP complex; assay: Calcium concentration dependence of formation of the VLDL/CRP complex; format: biochemical; conditions: FIG. 38; read-out: calcium concentration at which complex formation is half maximal
Description: FIG. 38 is a graph depicting the calcium concentration dependence of formation of the VLDL/CRP complex. Complex formation is half maximal at 5.0 mM calcium.

CRP = target: T2, CRP (Homo sapiens, UniProt P02741); assay: Direct binding of apo(B) to CRP
T2 construct: from tissue; host or cells: patient plasma (calcium precipitate, ammonium sulfate fractionation, Q-Sepharose peak 3)
T2 sequence (P02741 19-224): T1 sequence (P02741 19-224)

| inhibition of complex formation (result in words) (VLDL/CRP complex [1]) | Compound | further results |
| --- | --- | --- |
| inhibited | NCCCCCC(=O)O [EACA] | IC50 (VLDL/CRP complex [1]; FIG. 40): 2.1 mM |
|  | [Ca+2] [calcium] | EC50 (VLDL/CRP complex [2]): 5 mM |
| inhibited | NCCOP(=O)(O)O [phosphorylethanolamine] |  |
|  | apo(B): apo-lipoprotein B, the major protein component of VLDL | direct binding to CRP (result in words) (CRP): can bind directly to CRP |
| inhibited | phosphotidylcholine |  |
| inhibited | phosphotidylethanolamine |  |
